According to patent publication US20120322768A1, “COMPOUNDS, COMPOSITIONS AND METHODS FOR TREATING PROTOZOAN INFECTIONS” (QUEEN MARY & WESTFIELD COLLEGE, priority 2009, published 2012):
Like-named read-outs stand apart in the source and are kept apart here.

B1: T. brucei NTR (TbNTR) (Trypanosoma brucei brucei TREU927) (protein)
chain: DAFIRVVERRHSSKRFDSSRPVDHTLIARLLEATTRAPTAFNLQPWVAIVVHETSQRGALSHAALDQPQPREAPVTVVFAGDMEPEWRAPAALELGLNSGYYHPLYGAAYLRLVYYHLHGGPFGSMAKAKSCISSWYSNATGTPLLSVPTTMQGYAWKQAMIPATTFIYAATAAGLDTAILEGFDEAKVREVVGLPERYTVPVIISVGYKKADEQGKPPVRSPRFSTGSLVRWNRF

Columns and labels:
[1] = system: bloodstream form T. brucei; assay: microbe, parasite or virus in culture; assay type: cell-based; details: Trypanosoma brucei
THP-1 cells = assay: cells; details: Homo sapiens, THP-1, 144 h, read-out: IC50 THP1
[2] = system: intracellular form T. cruzi; assay: microbe, parasite or virus in culture; assay type: cell-based; details: Trypanosoma cruzi, Vero, 72 h, read-out: IC50 T. cruzi
Vero cells = assay: cells; assay type: cell-based; details: Chlorocebus sabaeus, read-out: IC50 Vero cells
[3] = system: insect form Leishmania major; assay: microbe, parasite or virus in culture; assay type: cell-based; details: 144 h, read-out: IC50 L. major
[4] = Stability in whole human blood (HPLC); assay type: in vitro ADME; details: three-day incubation at 37° C., 100 μM
Protocol: (§1) Select nitrobenzyl phosphoramide mustards (100 μM) were incubated in pH 7.4 100 mM phosphate buffer or in whole human blood at 37° C. Aliquots were withdrawn at different time intervals and mixed with acetonitrile (1-1 for phosphate buffer and 1-5 for whole blood). The samples were centrifuged and analyzed by HPLC.

[5] = Stability in phosphate buffer (HPLC); assay type: physicochemical; details: pH 7.4, 100 mM phosphate buffer, three-day incubation at 37° C., 100 μM
Protocol: as §1

[6] = substrate: CC1CS(=O)(=O)CCN1/N=C/c1ccc([N+](=O)[O-])o1; assay: TbNTR enzyme activity by NADH oxidation (absorbance at 340 nm); assay type: biochemical, T. brucei; details: other: apparent; NADH 100 μM, substrate 2-75 μM
Protocol: Enzyme activity was measured by following the change in absorbance at 340 nm due to NADH oxidation (34, 35). A reaction mixture (1 ml) containing 50 mM Tris-Cl pH 7.0, 100 μM NADH and NBPM (Tables 1 and 2) was incubated at room temperature for 5 min. The background rate of NADH oxidation was determined and the reaction initiated by the addition of 20 μg TbNTR. The enzyme activity was calculated using c of 6,220 M^−1 cm^−1. The absorbance spectrum (320-600 nm) for each NBPM was determined before.

[7] = 72 h, read-out: IC50 T. bruccei
[8] = read-out: IC50 against bloodstream form T. brucei

Molecule | IC50 [1, 7] | IC50 (THP-1 cells) | IC50 [2] | IC50 [1, 8] | IC50 (Vero cells) | IC50 [3] | further results
NP(=O)(OCc1ccc([N+](=O)[O-])cc1)N(CCCl)CCCl (centres unmarked) [LH7] | 3.4 ± 0.3 µM | 66 ± 0.8 µM |  |  |  |  | 
NP(=O)(OCc1ccc([N+](=O)[O-])cc1F)N(CCCl)CCCl (centres unmarked) [LH32, 2-Fluoro-4-nitrobenzyl phosphoramide mustard] | 0.268 ± 0.008 µM | 20.3 ± 1.8 µM | 9.54 ± 0.27 µM | 0.268 ± 0.008 µM | > 100 µM | 4.72 ± 0.23 µM | 
NP(=O)(OCc1ccc([N+](=O)[O-])cc1C(F)(F)F)N(CCCl)CCCl (centres unmarked) [LH33, 2-Trifluoromethyl-4-nitrobenzyl phosphoramide mustard] | 0.149 ± 0.02 µM | 19 ± 1.9 µM | 7.97 ± 1.13 µM | 0.149 ± 0.02 µM | > 100 µM | 5.88 ± 0.28 µM | 
NP(=O)(OCc1ccc([N+](=O)[O-])cc1Cl)N(CCCl)CCCl (centres unmarked) [LH34, 2-Chloro-4-nitrobenzyl phosphoramide mustard] | 0.008 ± 0.001 µM | 10 ± 1.2 µM | 9.14 ± 0.54 µM | < 0.01 µM | > 100 µM | 3.1 ± 0.28 µM | change in peak area in whole human blood [4]: less than 30%; Stability in phosphate buffer [5]: stable
NP(=O)(OCc1c(F)cc([N+](=O)[O-])cc1F)N(CCCl)CCCl (centres unmarked) [LH37, 2,6-Difluoro-4-nitrobenzyl phosphoramide mustard] | 0.007 µM | 6.9 µM | 0.99 ± 0.01 µM | < 0.01 µM | > 100 µM | 1.29 ± 0.08 µM | Stability in human whole blood [4]: completely stable; Stability in phosphate buffer [5]: completely stable
CC1CS(=O)(=O)CCN1/N=C/c1ccc([N+](=O)[O-])o1 (centres unmarked) [Nifurtimox, reference compound] |  | 64.8 ± 1.5 µM |  |  |  |  | 
Nc1nc(N)nc(Nc2ccc([As]3SCC(CO)S3)cc2)n1 (centres unmarked) [melarsoprol, reference compound] |  |  |  |  |  |  | IC50 ([1]; read-out: drug sensitivity (IC50)): ~4 µM
B1 |  |  |  |  |  |  | Km [6]: 53.1 ± 15.2 µM; Vmax [6]: 0.423 µmol/min/mg; kcat/Km [6]: 3400 M⁻¹ s⁻¹
